From the supplement of paper PMC10307832

What was measured:
Experiment in all cases: relative viability (nuclei count vs DMSO), 5 days (fraction); higher = more cells survive
[1] = tested on: SW 1573
Procedure, shortened: (§1)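 Lung cancer cell lines, seeded in 1536-well plates, were treated the following day by pin tool with a single drug or with five library-drug doses (not always all listed) in √10 steps on top of a fixed anchor-drug dose. Cells were fixed and nuclei stained in one step after 5 days, and nuclei were counted. Relative viability is the nuclei count for treated wells divided by that for vehicle wells, reported as medians of duplicate plates.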

[2] = tested on: NCI-H647
Procedure, shortened: as §1

[3] = tested on: RERF-LC-KJ
Procedure, shortened: as §1

[4] = tested on: NCI-H1792
Procedure, shortened: as §1

[5] = tested on: SK-LU-1
Procedure, shortened: as §1

[6] = tested on: NCI-H1975
Procedure, shortened: as §1

[7] = tested on: NCI-H2126
Procedure, shortened: as §1

[8] = tested on: NCI-H1755
Procedure, shortened: as §1

[9] = tested on: PC-3 [JPC-3]
Procedure, shortened: as §1

[10] = tested on: NCI-H1734
Procedure, shortened: as §1

[11] = tested on: HOP-62
Procedure, shortened: as §1

[12] = tested on: NCI-H2228
Procedure, shortened: as §1

[13] = tested on: NCI-H460
Procedure, shortened: as §1

[14] = tested on: LC-2-ad
Procedure, shortened: as §1

[15] = tested on: LOU-NH91
Procedure, shortened: as §1

[16] = tested on: NCI-H2342
Procedure, shortened: as §1

[17] = tested on: NCI-H1915
Procedure, shortened: as §1

[18] = tested on: NCI-H358
Procedure, shortened: as §1

[19] = tested on: LXF-289
Procedure, shortened: as §1

[20] = tested on: HCC-15
Procedure, shortened: as §1

[21] = tested on: NCI-H2347
Procedure, shortened: as §1

[22] = tested on: A-427
Procedure, shortened: as §1

[23] = tested on: HCC-78
Procedure, shortened: as §1

CC1(C)CCC(c2ccc(Cl)cc2)=C(CN2CCN(c3ccc(C(=O)NS(=O)(=O)c4ccc(N[C@H](CCN5CCOCC5)CSc5ccccc5)c(S(=O)(=O)C(F)(F)F)c4)cc3)CC2)C1 [Navitoclax] + O=C(c1cc(Cc2n[nH]c(=O)c3ccccc23)ccc1F)N1CCN(C(=O)C2CC2)CC1 [Olaparib] (partner 8 µM)
relative viability ([1]; first compound 0.005 µM): 0.486 | relative viability ([1]; first compound 0.01581 µM): 0.528 | relative viability ([1]; first compound 0.05 µM): 0.471 | relative viability ([1]; first compound 0.1581 µM): 0.431 | relative viability ([1]; first compound 0.5 µM): 0.367 | relative viability ([2]; first compound 0.005 µM): 0.47 | relative viability ([2]; first compound 0.01581 µM): 0.605 | relative viability ([2]; first compound 0.05 µM): 0.498 | relative viability ([2]; first compound 0.1581 µM): 0.471 | relative viability ([2]; first compound 0.5 µM): 0.288 | relative viability ([3]; first compound 0.005 µM): 0.887 | relative viability ([3]; first compound 0.01581 µM): 0.796 | relative viability ([3]; first compound 0.05 µM): 0.917 | relative viability ([3]; first compound 0.1581 µM): 0.861 | relative viability ([3]; first compound 0.5 µM): 0.983 | relative viability ([4]; first compound 0.005 µM): 0.408 | relative viability ([4]; first compound 0.01581 µM): 0.662 | relative viability ([4]; first compound 0.1581 µM): 0.386 | relative viability ([4]; first compound 0.5 µM): 0.326 | relative viability ([5]; first compound 0.005 µM): 0.613 | relative viability ([5]; first compound 0.01581 µM): 0.474 | relative viability ([5]; first compound 0.05 µM): 0.329 | relative viability ([5]; first compound 0.1581 µM): 0.424 | relative viability ([5]; first compound 0.5 µM): 0.338 | relative viability ([6]; first compound 0.005 µM): 0.77 | relative viability ([6]; first compound 0.01581 µM): 0.854 | relative viability ([6]; first compound 0.05 µM): 0.773 | relative viability ([6]; first compound 0.1581 µM): 0.813 | relative viability ([6]; first compound 0.5 µM): 0.755 | relative viability ([7]; first compound 0.005 µM): 0.912 | relative viability ([7]; first compound 0.01581 µM): 0.994 | relative viability ([7]; first compound 0.05 µM): 0.847 | relative viability ([7]; first compound 0.1581 µM): 0.86 | relative viability ([7]; first compound 0.5 µM): 0.9 | relative viability ([8]; first compound 0.005 µM): 0.831 | relative viability ([8]; first compound 0.01581 µM): 0.929 | relative viability ([8]; first compound 0.05 µM): 0.686 | relative viability ([8]; first compound 0.1581 µM): 0.818 | relative viability ([8]; first compound 0.5 µM): 0.897 | relative viability ([9]; first compound 0.005 µM): 1.1 | relative viability ([9]; first compound 0.01581 µM): 1.14 | relative viability ([9]; first compound 0.05 µM): 1.22 | relative viability ([9]; first compound 0.1581 µM): 1.07 | relative viability ([9]; first compound 0.5 µM): 0.871 | relative viability ([10]; first compound 0.005 µM): 0.626 | relative viability ([10]; first compound 0.01581 µM): 0.67 | relative viability ([10]; first compound 0.1581 µM): 0.534 | relative viability ([10]; first compound 0.5 µM): 0.535 | relative viability ([11]; first compound 0.005 µM): 0.211 | relative viability ([11]; first compound 0.01581 µM): 0.434 | relative viability ([11]; first compound 0.05 µM): 0.507 | relative viability ([11]; first compound 0.1581 µM): 0.473 | relative viability ([11]; first compound 0.5 µM): 0.432 | relative viability ([12]; first compound 0.005 µM): 0.941 | relative viability ([12]; first compound 0.01581 µM): 0.754 | relative viability ([12]; first compound 0.1581 µM): 0.758 | relative viability ([12]; first compound 0.5 µM): 0.638 | relative viability ([13]; first compound 0.005 µM): 0.424 | relative viability ([13]; first compound 0.01581 µM): 0.499 | relative viability ([13]; first compound 0.05 µM): 0.359 | relative viability ([13]; first compound 0.1581 µM): 0.388 | relative viability ([13]; first compound 0.5 µM): 0.402 | relative viability ([14]; first compound 0.005 µM): 0.729 | relative viability ([14]; first compound 0.01581 µM): 0.744 | relative viability ([14]; first compound 0.05 µM): 0.654 | relative viability ([14]; first compound 0.1581 µM): 0.698 | relative viability ([14]; first compound 0.5 µM): 0.701 | relative viability ([15]; first compound 0.005 µM): 0.909 | relative viability ([15]; first compound 0.01581 µM): 0.928 | relative viability ([15]; first compound 0.05 µM): 0.697 | relative viability ([15]; first compound 0.1581 µM): 0.658 | relative viability ([15]; first compound 0.5 µM): 0.37 | relative viability ([16]; first compound 0.005 µM): 0.421 | relative viability ([16]; first compound 0.01581 µM): 0.44 | relative viability ([16]; first compound 0.05 µM): 0.322 | relative viability ([16]; first compound 0.1581 µM): 0.476 | relative viability ([16]; first compound 0.5 µM): 0.456 | relative viability ([17]; first compound 0.005 µM): 0.253 | relative viability ([17]; first compound 0.01581 µM): 0.247 | relative viability ([17]; first compound 0.05 µM): 0.215 | relative viability ([17]; first compound 0.1581 µM): 0.261 | relative viability ([17]; first compound 0.5 µM): 0.254 | relative viability ([18]; first compound 0.005 µM): 0.566 | relative viability ([18]; first compound 0.01581 µM): 0.751 | relative viability ([18]; first compound 0.05 µM): 0.663 | relative viability ([18]; first compound 0.1581 µM): 0.536 | relative viability ([18]; first compound 0.5 µM): 0.585 | relative viability ([19]; first compound 0.005 µM): 1.01 | relative viability ([19]; first compound 0.01581 µM): 1.12 | relative viability ([19]; first compound 0.05 µM): 0.88 | relative viability ([19]; first compound 0.1581 µM): 0.888 | relative viability ([19]; first compound 0.5 µM): 1.08 | relative viability ([20]; first compound 0.005 µM): 0.716 | relative viability ([20]; first compound 0.01581 µM): 0.787 | relative viability ([20]; first compound 0.05 µM): 0.626 | relative viability ([20]; first compound 0.1581 µM): 0.67 | relative viability ([20]; first compound 0.5 µM): 0.778 | relative viability ([21]; first compound 0.005 µM): 0.558 | relative viability ([21]; first compound 0.01581 µM): 0.585 | relative viability ([21]; first compound 0.05 µM): 0.537 | relative viability ([21]; first compound 0.1581 µM): 0.61 | relative viability ([21]; first compound 0.5 µM): 0.51 | relative viability ([22]; first compound 0.005 µM): 0.71 | relative viability ([22]; first compound 0.01581 µM): 0.682 | relative viability ([22]; first compound 0.05 µM): 0.782 | relative viability ([22]; first compound 0.1581 µM): 0.808 | relative viability ([22]; first compound 0.5 µM): 0.737 | relative viability ([23]; first compound 0.005 µM): 0.844 | relative viability ([23]; first compound 0.01581 µM): 0.776 | relative viability ([23]; first compound 0.05 µM): 0.696 | relative viability ([23]; first compound 0.1581 µM): 0.925 | relative viability ([23]; first compound 0.5 µM): 0.863
